Measurements as given in article PMC8143339, “PK/PD Modeling of the PDE7 Inhibitor—GRMS-55 in a Mouse Model of Autoimmune Hepatitis” (Pharmaceutics, 2021).
Converted amounts (≈) assume the structure as drawn. Read-outs that look alike come from different tables or passages of the source.

System: ConA-induced hepatitis
Experiment: Pharmacodynamic study and PK/PD/disease progression modeling in ConA-induced hepatitis
Assay type: in vivo, female BALB/c mice
Conditions: for IC50: Mus musculus, serum concentration, PK/PD model, IP 50 or 100 mg/kg, ConA 20 mg/kg IV
Procedure: ConA was dissolved in sterile saline (2 mg·mL^−1). The studied compounds (GRMS-55, rolipram, and BRL-50481) were dissolved in a mixture of DMSO, PEG 400, and water for injection at a ratio of 25:25:50 (v/v/v). Mice were given an IP injection of the investigated compounds or the corresponding volume of vehicle alone and, thirty minutes later, intravenously (IV) administered with ConA solution. An additional control group received vehicle alone IP instead of the studied compounds followed by IV injection of sterile saline. ConA was given at a dose of 20 mg·kg^−1. Mice were exsanguinated at several time points post-ConA injection. Blood samples were allowed to clot for 0.5 h at room temperature and then centrifuged at 3000× g for 10 min to obtain the serum, which was stored at −20 °C until further analysis.
The influence of PDE inhibitors on the levels of inflammatory mediators and transaminases in ConA-treated mice was investigated in two separate experiments. In the preliminary study, the animals were pretreated IP with GRMS-55 at a dose of 50 mg·kg^−1, the PDE4-selective inhibitor rolipram at a dose of 10 mg·kg^−1, or the PDE7-selective inhibitor BRL-50481 at a dose of 50 mg·kg^−1. Doses of the investigated compounds were chosen based on the results of previous studies. Subsequently, mice were given an IV injection of ConA and sacrificed at 8 h following mitogen dosing. The levels of TNF-α, IL-6, and IFN-γ and the activities of ALT and AST in the mouse serum were measured. This preliminary experiment allowed comparing the activity of the studied PDE inhibitors in this AIH model and helped to select the doses of GRMS-55 for a subsequent pharmacodynamic study. In the final pharmacodynamic experiment, GRMS-55 was administered at two dose levels (50 and 100 mg·kg^−1) followed by ConA administration at a dose of 20 mg·kg^−1. Animals were sacrificed at various time points post-ConA dosing (1, 2, 4, 8 and 24 h). The levels of TNF-α, IL-1β, IL-4, IL-6, IL-10, IL-12, IL-17A, and IFN-γ were measured using a multiplex Luminex assay. In addition, the activities of ALT and AST in the mouse serum were assessed. The concentration–time profiles of the selected biomarkers obtained in this experiment combined with the results of pharmacokinetic analysis allowed the development of a semi-mechanistic PK/PD/disease progression model and the investigation of concentration–effect relationships of GRMS-55.
The serum samples from the preliminary pharmacological study were analyzed using ELISA tests according to the protocols provided by the manufacturers. The TNF-α concentrations were measured using the Mouse TNF-α Quantikine ELISA Kit (R&D Systems, Minneapolis, MN, USA), while the concentrations of IL-6 and IFN-gamma were quantified by ELISA kits manufactured by Cloud-Clone Corp. (Houston, TX, USA). The absorbance of samples was measured on a POLARstar Omega multi-mode microplate reader (BMG LABTECH, Ortenberg, Germany) set at 450 nm wavelength. TNF-α, IL-1β, IL-6, IL-4, IL-10, IL-12, IL-17A, and IFN-γ serum levels in samples from pharmacodynamic experiment were determined by a premixed Magnetic Luminex Assay (R&D Systems, Inc., Minneapolis, MN, USA) according to the manufacturer’s protocol. Serum AST and ALT activities were quantified on a chemistry analyzer BS-800 (Shenzhen Mindray Bio-medical Electronics Co., Ltd., Shenzhen, China).
A PK/PD/disease progression model illustrated in Figure 1 was developed considering the mechanism of action of the investigated compound and the mechanisms of progression of ConA-induced hepatitis, i.e., the subsequent stages leading to the production and release of relevant biomarkers.
Moreover, possible interrelationships and interactions among the measured biomarkers were considered during the model building process. […]

Cn1c(=O)c2c(nc(NCCc3ccccc3)n2CCCC(=O)NN=Cc2ccccc2O)n(C)c1=O [GRMS-55, 4-(1,3-dimethyl-2,6-dioxo-8-(phenethylamino)-1,2,3,6-tetrahydro-7H-purin-7-yl)-N′-(2-hydroxybenzylidene)butanehydrazide]
effect on serum IL-4 level (1, 2 and 8 h post-ConA, both dose groups): decreased
effect on ALT and AST activities (50 or 100 mg/kg IP): significant and prominent decrease
effect on serum IL-12 level (4 h post-ConA, 50 and 100 mg/kg IP): significantly decreased
effect on serum IL-1β level (8 h post-ConA, 50 and 100 mg/kg IP): significantly decreased
effect on serum IL-17A concentration (8 h post-ConA, both dose levels): decreased
IC50 (read-out: IC50_IFN-γ, concentration resulting in 50% of Imax of IFN-γ): 12.3 µg/mL (≈ 24.4 µM)
IC50 (read-out: IC50_IL-6, concentration resulting in 50% of Imax of IL-6): 13.4 µg/mL (≈ 26.6 µM)
IC50 (read-out: IC50_TNF-α, concentration resulting in 50% of Imax of TNF-α): 7.97 µg/mL (≈ 15.8 µM)
